Measured values from patent US20200155503A1, “COMPOSITIONS FOR USE FOR TREATING CUTANEOUS LEISHMANIASIS” (BIONOOX SA, priority 2017, published 2020).
Like-named read-outs stand apart in the source and are kept apart here.

Columns and labels:
Leishmania major mCherry = experiment: Parasite killing in bone marrow-derived macrophages infected with Leishmania major mCherry (flow cytometry, microscopy); assay type: cell-based; conditions: for macrophage mediated parasite killing: BMDM infected with L. major mCherry, compounds tested individually
Experimental: The direct microbicidal effect of compounds against the Leishmania parasites in infected macrophages and neutrophils was evaluated.
Bone marrow-derived macrophages (BMDM) were cultured for 7 days, harvested and infected with Leishmania major mCherry for 2 hrs. Then the non-phagocytosed parasites were washed and dihydroquercetin, 3-(2-chloroacetamido) ethyl benzoate or bisabolol were added at different concentrations and incubated at different time points. • Parasites killing was evaluated by flow cytometry and microscopy. • NO production was assessed by Griess reaction from the supernatants.

Neutrophil = Neutrophil cell viability by flow cytometry with DAPI staining; assay type: cell-based
Experimental: Neutrophil cell viability was assessed by flow cytometry with DAPI staining pas 24 hours incubation with dihydroquercetin (5, 15 and 25 μM), 3-(2-chloroacetamido) ethyl benzoate (1, 2 and 4 μM) and bisabolol (0.05, 0.1 and 0.5% w/v).

[1] = system: Neutrophils infected with L. major mCherry; experiment: ROS production by neutrophils infected with L. major mCherry (Luminol); assay type: cell-based; conditions: MOI 1:10, Luminol for 90 min
Experimental: Neutrophils were isolated by Magnetic-activated cell sorting (MACS) and infected with L. major mCherry at a multiplicity of infection ratio (MOI) of 1:10.
Dihydroquercetin, […] ethyl benzoate or bisabolol at different concentrations were added and stimulated for 24 hours.
Kinetic of ROS production was measured by Luminol for 90 min.

Leishmania parasites = experiment: Individual evaluation against Leishmania parasites; conditions: evaluated individually

Structure (SMILES) | direct microbicidal effect against L. major (Leishmania major mCherry; infected macrophages and neutrophils, different concentrations) | neutrophil viability (Neutrophil; 24 hours incubation, 1, 2 and 4 μM) | ROS production [1] | macrophage mediated parasite killing (Leishmania major mCherry) | effect against Leishmania parasites (Leishmania parasites) | cytotoxicity (neutrophil cell viability) (Neutrophil; 24 hours incubation, 5, 15 and 25 μM) | cytotoxicity (neutrophil cell viability) (Neutrophil)
CCOC(=O)c1cccc(NC(=O)CCl)c1 [3-(2-chloroacetamido) ethyl benzoate] | had a direct microbicidal effect against L. major | induced a reduction in neutrophil viability | decrease in ROS production | – | – | – | –
O=C1c2c(O)cc(O)cc2OC(c2ccc(O)c(O)c2)C1O (stereo not shown) [Dihydroquercetin] | – | – | – | no impact on macrophage mediated parasite killing | no or limited effect | no cytotoxicity | –
Cc1c(C)c2c(c(C)c1O)CC[C@@](C)(CCC[C@H](C)CCC[C@H](C)CCCC(C)C)O2 [alpha-tocopherol, (2R)-2,5,7,8-Tetramethyl-2-[(4R,8R)-(4,8,12-trimethyltridecyl)]-6-chromanol] | – | – | – | – | no or limited effect | – | –
CC(C)=CCCC(C)(O)C1CC=C(C)CC1 (stereo not shown) [bisabolol, 6-methyl-2-(4-methyl-3-cyclohexen-1-yl)-5-hepten-2-ol] | – | – | – | no impact on macrophage mediated parasite killing | no or limited effect | – | no cytotoxicity
